This is an account of results in patent publication US10246469B2, “Biaryl kinase inhibitors” (BRISTOL-MYERS SQUIBB COMPANY, priority 2015, dated 2019).

The test addresses T1, GST-Xa-hAAK1 (Homo sapiens, UniProt Q2M2I8).
T1 construct: GST (N); Factor Xa cleavage site (Xa) (internal); made in house
Briefly: AAK1 Kinase Assay. Particulars: bacterially expressed GST-Xa-hAAK1 3.5 nM; ATP 22 μM; fluoresceinated peptide 1.5 μM; 3 hours at room temperature; Caliper LabChip 3000. The class given is biochemical. Put shortly: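 Bacterially expressed GST-Xa-hAAK1 (3.5 nM) phosphorylated 1.5 μM 5-FAM peptide with 22 μM ATP in Tris pH 7.4, MgCl2, DTT, 1.6% DMSO, 3 h at room temperature. EDTA-stopped; product separated electrophoretically on Caliper LabChip. IC50 from eleven concentrations by non-linear regression.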

T1 sequence (Q2M2I8 whole entry): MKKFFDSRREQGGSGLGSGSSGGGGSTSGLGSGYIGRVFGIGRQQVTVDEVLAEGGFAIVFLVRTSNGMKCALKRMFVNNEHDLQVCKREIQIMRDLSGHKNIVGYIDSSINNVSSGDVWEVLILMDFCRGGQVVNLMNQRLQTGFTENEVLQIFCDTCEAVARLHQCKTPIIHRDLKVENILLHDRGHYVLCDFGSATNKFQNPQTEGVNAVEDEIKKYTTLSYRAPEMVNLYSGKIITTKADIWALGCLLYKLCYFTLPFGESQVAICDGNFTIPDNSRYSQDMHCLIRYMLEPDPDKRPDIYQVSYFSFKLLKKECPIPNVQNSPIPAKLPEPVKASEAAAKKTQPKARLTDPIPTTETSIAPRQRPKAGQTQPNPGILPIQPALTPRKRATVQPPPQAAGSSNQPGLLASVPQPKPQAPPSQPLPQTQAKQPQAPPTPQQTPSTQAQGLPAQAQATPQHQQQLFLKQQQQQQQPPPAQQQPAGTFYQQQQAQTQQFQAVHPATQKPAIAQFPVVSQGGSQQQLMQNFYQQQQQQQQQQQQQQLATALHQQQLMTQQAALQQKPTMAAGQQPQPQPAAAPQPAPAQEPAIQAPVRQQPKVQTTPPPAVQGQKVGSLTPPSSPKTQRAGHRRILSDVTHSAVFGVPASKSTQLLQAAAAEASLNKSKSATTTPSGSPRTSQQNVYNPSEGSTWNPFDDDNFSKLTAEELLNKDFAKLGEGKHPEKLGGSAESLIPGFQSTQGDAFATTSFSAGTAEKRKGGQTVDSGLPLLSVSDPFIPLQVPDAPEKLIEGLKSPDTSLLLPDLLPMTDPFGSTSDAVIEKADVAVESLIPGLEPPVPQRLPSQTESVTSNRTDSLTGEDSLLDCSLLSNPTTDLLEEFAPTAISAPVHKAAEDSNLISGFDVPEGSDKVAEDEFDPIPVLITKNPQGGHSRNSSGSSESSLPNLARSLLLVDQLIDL

Broadly, the IC50 is the point on the concentration scale where inhibition reaches its midpoint. Take `Cc1csc(Nc2nccc(-c3ccc(OC[C@@](C)(N)CC(C)C)c(C(F)(F)F)c3)n2)n1` [Example 376, (S)—N-(4-(4-((2-amino-2,4-dimethylpentyl)oxy)-3-(trifluoromethyl)phenyl)pyrimidin-2-yl)-4-methylthiazol-2-amine]: the IC50 was 0.0008 µM. The same measure for `CC(C)C[C@](C)(N)COc1ccc(-c2ccnc(NC3CCCOC3)c2)cc1Cl` (single isomer, unassigned) [Example 340]: 0.11 µM.

With `Cc1nc2c(-c3ccc(OC[C@@](C)(N)CC(C)C)c(C(F)(F)F)c3)ccnc2[nH]1` [Example 291, (S)-2,4-dimethyl-1-(4-(2-methyl-3H-imidazo[4,5-b]pyridin-7-yl)-2-(trifluoromethyl)phenoxy)pentan-2-amine], the half-maximal inhibitory concentration (IC50) was 0.034 µM. As for `CC(C)C[C@@](C)(N)COc1ncc(-c2ccnc3ccnn23)cc1Cl` [Example 265, (R)-1-((3-chloro-5-(pyrazolo[1,5-a]pyrimidin-7-yl)pyridin-2-yl)oxy)-2,4-dimethylpentan-2-amine], the figure is 0.055 µM; as for `Cc1nccc(-c2ccc(OC[C@@](C)(N)CC(C)C)c3ncsc23)n1` [Example 342, (S)-2,4-dimethyl-1-((7-(2-methylpyrimidin-4-yl)benzo[d]thiazol-4-yl)oxy)pentan-2-amine], 0.039 µM. The same measure for `Cc1cn2nccc(-c3ccc(OC[C@@](C)(N)CC(C)C)c(C(F)(F)F)c3)c2n1` [Example 498, (S)-2,4-dimethyl-1-(4-(2-methylimidazo[1,2-b]pyridazin-8-yl)-2-(trifluoromethyl)phenoxy)pentan-2-amine]: 0.0005 µM; for `CC(C)C[C@](C)(N)COc1ccc(-c2ccnc(NC3CCOC3)c2)cc1Cl` (stereo partly drawn) [Example 345, 4-(4-(((S)-2-amino-2,4-dimethylpentyl)oxy)-3-chlorophenyl)-N-(tetrahydrofuran-3-yl)pyridin-2-amine]: 0.0052 µM. The same measure for `Cc1cc(-c2cnn3cccnc23)ccc1OC[C@@](C)(N)CC(C)C` [Example 333]: 0.099 µM; for `CC(C)C[C@](C)(N)COc1ccc(-c2ccnc3ccnn23)cc1F` [Example 461, (S)-1-(2-fluoro-4-(pyrazolo [1,5-a]pyrimidin-7-yl)phenoxy)-2,4-dimethylpentan-2-amine]: 0.0029 µM; for `CC(C)C[C@](C)(N)COc1ccc(-c2ccnc(NC(=O)CC3CCCC3)c2)cc1C(F)(F)F` [Example 392, (S)—N-(4-(4-((2-amino-2,4-dimethylpentyl)oxy)-3-(trifluoromethyl)phenyl)pyridin-2-yl)-2-cyclopentylacetamide]: 0.0007 µM.

`CC(C)C[C@](C)(N)COc1ccc(-c2ccnc(NC3CCCC3)n2)cc1C(F)(F)F` [Example 377, (S)-4-(4-((2-amino-2,4-dimethylpentyl)oxy)-3-(trifluoromethyl)phenyl)-N-cyclopentylpyrimidin-2-amine]: the IC50 turned out to be 0.0074 µM. As for `Cc1nc(-c2ccnc3ccnn23)ccc1OCC(N)(CC(C)C)C(F)(F)F` (stereo not shown) [Example 490, 1,1,1-trifluoro-4-methyl-2-(((2-methyl-6-(pyrazolo[1,5-a]pyrimidin-7-yl)pyridin-3-yl)oxy)methyl)pentan-2-amine], the figure is 0.037 µM; as for `Cc1cn2nccc(-c3ccc(OC[C@@](C)(N)CC(C)C)c(C)n3)c2n1` [Example 452, (S)-2,4-dimethyl-1-((2-methyl-6-(2-methylimidazo[1,2-b]pyridazin-8-yl)pyridin-3-yl)oxy)pentan-2-amine], 0.011 µM. As for `CC(C)C[C@](C)(N)COc1ccc(-c2ccnc3[nH]c(N)nc23)cc1C#N` [Example 254, (S)-2-((2-amino-2,4-dimethylpentyl)oxy)-5-(2-amino-3H-imidazo[4,5-b]pyridin-7-yl)benzonitrile], the figure is 0.022 µM; as for `CC(C)C[C@](C)(N)COc1ccc(-c2ncnc3c2ccn3C)cc1F` [Example 365, (S)-1-(2-fluoro-4-(7-methyl-7H-pyrrolo [2,3-d]pyrimidin-4-yl)phenoxy)-2,4-dimethylpentan-2-amine], 0.098 µM.

With `CC(C)C[C@](C)(N)COc1ccc(-c2ccnc3cc(C(F)(F)F)nn23)cc1Cl` [Example 336, (S)-1-(2-chloro-4-(2-(trifluoromethyl)pyrazolo[1,5-a]pyrimidin-7-yl)phenoxy)-2,4-dimethylpentan-2-amine], the IC50 came to 0.015 µM. The same measure for `CC(C)C[C@](C)(N)COc1cnc(-c2ccnc3ccnn23)cc1C#N` [Example 486, (S)-5-((2-amino-2,4-dimethylpentyl)oxy)-2-(pyrazolo[1,5-a]pyrimidin-7-yl)isonicotinonitrile]: 1.37 µM; for `Cc1cc(-c2ccnc3ccnn23)cnc1OC[C@@](C)(N)CC(C)C` [Example 275, (S)-2,4-dimethyl-1-((3-methyl-5-(pyrazolo[1,5-a]pyrimidin-7-yl)pyridin-2-yl)oxy)pentan-2-amine]: 0.0022 µM. The same measure for `CC(C)C[C@](C)(N)COc1ccc(-c2ccnc(NC(=O)c3nccs3)c2)cc1C#N` [Example 261, (S)—N-(4-(4-((2-amino-2,4-dimethylpentyl)oxy)-3-cyanophenyl)pyridin-2-yl)thiazole-2-carboxamide]: 0.00036 µM. The same measure for `CC(C)C[C@](C)(N)COc1ccc(-c2ccnc(NC3CCC(F)C3)c2)cc1Cl` (stereo partly drawn) [Example 334, 4-(4-(((S)-2-amino-2,4-dimethylpentyl)oxy)-3-chlorophenyl)-N-(3-fluorocyclopentyl)pyridin-2-amine]: 0.015 µM; for `Cc1nccc(-c2ccc(OCC(C)(C)N)c(C)n2)n1` [Example 321, 2-methyl-1-((2-methyl-6-(2-methylpyrimidin-4-yl)pyridin-3-yl)oxy)propan-2-amine]: 0.162 µM. Regarding `CCN1Cc2nccc(-c3ccc(OC[C@@](C)(N)CC(C)C)c(F)c3)c2C1=O` [Example 419, (S)-4-(4-((2-amino-2,4-dimethylpentyl)oxy)-3-fluorophenyl)-6-ethyl-6,7-dihydro-5H-pyrrolo [3,4-b]pyridin-5-one], the 50% inhibitory concentration (IC50) stood at 1.14 µM.
